Measured values reported in US11976083B2, “Inhibitors of peptidylarginine deiminases” (Gilead Sciences, Inc., priority 2020, dated 2024).

Biological target: T1, human PAD4 (Homo sapiens, UniProt Q9UM07)
T1 construct: human PAD4 (NM_012387), A2-P663, was PCR amplified; His-SUMO (N, cleaved yes); made in house; host or cells: E. coli BL21(DE3)
Assay: In vitro PAD4 BAEE biochemical assay
Conditions: BAEE substrate 3 mM, 5 nM PAD4, 2 mM calcium chloride; geometric mean of multiple experiments
Procedure, shortened: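 Recombinant human PAD4 (5 nM final) with 2 mM CaCl2 was preincubated with compound 30 min at 25 °C in MOPS buffer pH 7.6, then reacted with 3 mM BAEE for 2 h at 25 °C. After EDTA stop, released ammonia was detected by o-phthalaldehyde/DTT fluorescence (ex 405/em 535 nm); IC50 from four-parameter fit, geometric mean.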

T1 sequence (Q9UM07 2-663): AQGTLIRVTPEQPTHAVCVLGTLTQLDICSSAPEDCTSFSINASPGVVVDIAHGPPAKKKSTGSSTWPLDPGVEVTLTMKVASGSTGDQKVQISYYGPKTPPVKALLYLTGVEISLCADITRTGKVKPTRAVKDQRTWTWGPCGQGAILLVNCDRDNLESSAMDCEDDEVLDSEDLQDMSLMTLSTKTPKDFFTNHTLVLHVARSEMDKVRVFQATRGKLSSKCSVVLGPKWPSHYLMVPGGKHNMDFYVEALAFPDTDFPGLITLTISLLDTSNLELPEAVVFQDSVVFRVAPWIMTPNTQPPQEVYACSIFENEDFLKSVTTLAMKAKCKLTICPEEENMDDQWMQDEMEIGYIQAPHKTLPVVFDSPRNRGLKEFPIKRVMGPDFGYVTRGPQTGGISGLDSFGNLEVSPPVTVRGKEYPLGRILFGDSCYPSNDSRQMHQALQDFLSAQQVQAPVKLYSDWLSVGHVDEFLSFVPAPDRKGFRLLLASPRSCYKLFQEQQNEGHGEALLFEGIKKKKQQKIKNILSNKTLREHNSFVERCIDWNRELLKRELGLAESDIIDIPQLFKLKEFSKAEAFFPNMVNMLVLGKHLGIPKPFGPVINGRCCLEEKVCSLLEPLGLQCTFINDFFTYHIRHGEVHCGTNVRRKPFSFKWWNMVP

C[C@H]1NC(=O)[C@@H]2C[C@H]2CCCC(F)(F)Cn2c(-c3nc4cc(C(=O)N[C@H]5CNCC[C@@H]5F)c(F)cc4n3C)cc3ccc1nc32 [Example 595, 2-[(2~{R},5~{R},7~ {R})-11,11-difluoro-2-methyl-4-oxo-3,13,19-triazatetracyclo[11.5.2.0^ {5,7}.0^{16,20}]icosa-1(19),14,16(20),17-tetraen-14-yl]-6-fluoro-~ {N}-[(3~{S},4~{S})-4-fluoro-3-piperidyl]-1-methyl-benzimidazole-5-carboxamide]
IC50: 37 nM

C[C@H]1NC(=O)C(C)(C)CCCCCCn2c(-c3nc4cc(C(=O)N[C@H]5CNCC[C@@H]5F)c(C#N)cc4n3C)cc3ccc1nc32 [Example 596, 6-cyano-~{N}-[(3~{S},4~ {S})-4-fluoro-3-piperidyl]-1-methyl-2-[(11~{R})-8,8,11-trimethyl-9-oxo-1,10,19-triazatricyclo[10.5.2.0^ {15,18}]nonadeca-12,14,16,18-tetraen-17-yl] benzimidazole-5-carboxamide]
IC50: 3580 nM

C[C@H]1NC(=O)c2ccccc2CCCC(F)(F)Cn2c(-c3nc4cc(C(=O)N[C@H]5CNCC[C@@H]5F)c(F)cc4n3C)cc3ccc1nc32 [Example 597, 2-[(2~{R})-14,14-difluoro-2-methyl-4-oxo-3,16,22-triazatetracyclo[14.5.2.0^ {5,10}.0^{19,23}]tricosa-1(21),5(10),6,8,17,19,22-heptaen-17-yl]-6-fluoro-~ {N}-[(3~{S},4~{S})-4-fluoro-3-piperidyl]-1-methyl-benzimidazole-5-carboxamide]
IC50: 42 nM

COc1cc(C(=O)N2[C@H]3CC[C@@H]2[C@H](N)C3)cc2nc(-c3cc4ccc5nc4n3CCCCCc3nccnc3C(=O)N[C@@H]5C)n(C)c12 [Example 598, (2~{R})-17-[5-[(1~{R}, 2~{R},4~{S})-2-amino-7-azabicyclo[2.2.1]heptane-7-carbonyl]-7-methoxy-1-methyl-benzimidazol-2-yl]-2-methyl-3,6,9,16,22-pentazatetracyclo[14.5.2.0^ {5,10}.0^{19,23}] tricosa-1(21),5(10),6,8,17, 19,22-heptaen-4-one]
IC50: 42 nM

C[C@H]1NC(=O)[C@@H]2C[C@H]2CCCCCn2c(-c3nc4cc(C(=O)N[C@H]5CNCC[C@@H]5F)c(F)cc4n3CCOC(F)(F)F)cc3ccc1nc32 [Example 599, 6-fluoro-~{N}-[(3~{S},4~{S})-4-fluoro-3-piperidyl]-2-[(2~{R}, 5~{R},7~{R})-2-methyl-4-oxo-3,13,19-triazatetracyclo[11.5.2.0^ {5,7}.0^{16,20}]icosa-1(19),14,16(20),17-tetraen-14-yl]-1-[2-(trifluoromethoxy)ethyl]benzimidazole-5-carboxamide]
IC50: 67 nM

C[C@H]1NC(=O)[C@@H]2C[C@H]2CCCCCn2c(-c3nc4cc(C(=O)N[C@H]5CNCC[C@@H]5F)c(F)cc4n3CCOC3CC3)cc3ccc1nc32 [Example 600, 1-[2-(cyclopropoxy)ethyl]-6-fluoro-~{N}-[(3~{S},4~ {S})-4-fluoro-3-piperidyl]-2-[(2~{R},5~{R},7~{R})-2-methyl-4-oxo-3,13,19-triazatetracyclo[11.5.2.0^ {5,7}.0^{16,20}]icosa-1(19),14,16(20),17-tetraen-14-yl]benzimidazole-5-carboxamide]
IC50: 46 nM

C[C@H]1NC(=O)[C@@H]2C[C@H]2CCCCCn2c(-c3nc4cc(C(=O)N[C@H]5CNCC[C@@H]5F)c(F)cc4n3CCO)cc3ccc1nc32 [Example 601, 6-fluoro-~{N}-[(3~{S},4~ {S})-4-fluoro-3-piperidyl]-1-(2-hydroxyethyl)-2-[(2~{R},5~{R},7~{R})-2-methyl-4-oxo-3,13,19-triazatetracyclo[11.5.2.0^ {5,7}.0^{16,20}]icosa-1(19),14,16(20),17-tetraen-14-yl]benzimidazole-5-carboxamide]
IC50: 45 nM

C[C@H]1NC(=O)C(C)(C)CCCCCCn2c(-c3nc4cc(C(=O)N[C@H]5CNCC[C@@H]5F)c(F)cc4n3C3C[C@@H]3F)cc3ccc1nc32 (stereo partly drawn) [Example 602, (1~{R})-6-fluoro-1-[(2~{S})-2-fluorocyclopropyl]-~{N}-[(3~{S},4~{S})-4-fluoro-3-piperidyl]-2-[(11~{R})-8,8,11-trimethyl-9-oxo-1,10,19-triazatricyclo [10.5.2.0^{15,18}]nonadeca-12,14,16,18-tetraen-17-yl]benzimidazole-5-carboxamide]
IC50: 97 nM

C[C@H]1NC(=O)C2(CCCCCCn3c(-c4nc5cc(C(=O)N[C@H]6CNCC[C@@H]6F)c(F)cc5n4C4CC4)cc4ccc1nc43)COC2 [Example 603, 1-cyclopropyl-6-fluoro-~ {N}-[(3~{S},4~{S})-4-fluoro-3-piperidyl]-2-[(11~{R})-11-methyl-9-oxo-spiro[1,10,19-triazatricyclo [10.5.2.0^{15,18}]nonadeca-12,14,16,18-tetraene-8,3′-oxetane]-17-yl] benzimidazole-5-carboxamide]
IC50: 44 nM

COc1cc(C(=O)N2C[C@H]3CC[C@@H]2[C@@H]3N)cc2nc(-c3cc4ccc5nc4n3CCCCCc3nccnc3C(=O)N[C@@H]5C)n(C)c12 [Example 604, (2~{R})-17-[5-[(1~{R},4~ {R},7~{R})-7-amino-2-azabicyclo[2.2.1]heptane-2-carbonyl]-7-methoxy-1-methyl-benzimidazol-2-yl]-2-methyl-3,6,9,16,22-pentazatetracyclo[14.5.2.0^ {5,10}.0^{19,23}]tricosa-1(21),5(10),6,8,17,19,22-heptaen-4-one]
IC50: 86 nM

COc1cc(C(=O)N2CC[C@@H](OC)[C@@H](N)C2)cc2nc(-c3cc4ccc5nc4n3CCCCCCc3nccnc3C(=O)N[C@@H]5C)n(C)c12 [Example 606, (2~{R})-18-[5-[(3~{S},4~ {R})-3-amino-4-methoxy-piperidine-1-carbonyl]-7-methoxy-1-methyl-benzimidazol-2-yl]-2-methyl-3,6,9,17,23-pentazatetracyclo[15.5.2.0^ {5,10}.0^{20,24}]tetracosa-1(23),5(10),6,8,18,20(24), 21-heptaen-4-one]
IC50: 129 nM

COC1CC1n1c(-c2cc3ccc4nc3n2CCCCC[C@@H]2C[C@H]2C(=O)N[C@@H]4C)nc2cc(C(=O)N[C@H]3CNCC[C@@H]3F)c(F)cc21 (stereo partly drawn) [Example 607, 6-fluoro-~{N}-[(3~{S),4~ {S})-4-fluoro-3-piperidyl]-1-(2-methoxycyclopropyl)-2-[(2~{R},5~{R},7~{R})-2-methyl-4-oxo-3,13,19-triazatetracyclo[11.5.2.0^ {5,7}.0^{16,20}]icosa-1(18),14,16,19-tetraen-14-yl]benzimidazole-5-carboxamide]
IC50: 51 nM

COc1cc(C(=O)N2CC[C@@H](OC)[C@@H](N)C2)cc2nc(-c3cc4ccc5nc4n3CC(F)(F)CCCCC(C)(C)C(=O)N[C@@H]5C)n(C)c12 [Example 608, (11~{R})-17-[5-[(3~{S}, 4~{R})-3-amino-4-methoxy-piperidine-1-carbonyl]-7-methoxy-1-methyl-benzimidazol-2-yl]-3,3-difluoro-8,8,11-trimethyl-1,10,19-triazatricyclo[10.5.2.0^ {15,18}]nonadeca-12,14,16,18-tetraen-9-one]
IC50: 115 nM

COc1cc(C(=O)N2CC[C@@H](OC(F)F)[C@@H](N)C2)cc2nc(-c3cc4ccc5nc4n3CC(F)(F)CCCCC(C)(C)C(=O)N[C@@H]5C)n(C)c12 [Example 609, (11~{R})-17-[5-[(3~{S}, 4~{R})-3-amino-4-(difluoromethoxy)piperidine-1-carbonyl]-7-methoxy-1-methyl-benzimidazol-2-yl]-3,3-difluoro-8,8,11-trimethyl-1,10,19-triazatricyclo[10.5.2.0^ {15,18}]nonadeca-12,14,16,18-tetraen-9-one]
IC50: 172 nM

COc1cc(C(=O)N2CC[C@@H](OC)[C@@H](N)C2)cc2nc(-c3cc4ccc5nc4n3CCCCCc3cnc(C)nc3C(=O)N[C@@H]5C)n(C)c12 [Example 610, (2~{R})-17-[5-[(3~{S},4~ {R})-3-amino-4-methoxy-piperidine-1-carbonyl]-7-methoxy-1-methyl-benzimidazol-2-yl]-2,7-dimethyl-3,6,8,16,22-pentazatetracyclo[14.5.2.0^ {5,10}.0^{19,23}]tricosa-1(21),5(10),6,8,17,19,22-heptaen-4-one]
IC50: 190 nM

COc1cc(C(=O)N2CC[C@@H](OC)[C@@H](N)C2)cc2nc(-c3cc4ccc5nc4n3CCCCCCC3(COC3)C(=O)N[C@@H]5C)n(C)c12 [Example 611, (11~{R})-17-[5-[(3~{S}, 4-{R})-3-amino-4-methoxy-piperidine-1-carbonyl]-7-methoxy-1-methyl-benzimidazol-2-yl]-11-methyl-spiro[1,10,19-triazatricyclo[10.5.2.0^{15,18}]nonadeca-12,14,16,18-tetraene-8,3′-oxetane]-9-one]
IC50: 85 nM

COc1cc(C(=O)N2CC[C@@H](OC(F)F)[C@@H](N)C2)cc2nc(-c3cc4ccc5nc4n3CCCCCc3nccnc3C(=O)N[C@@H]5C)n(C3CC3)c12 [Example 612, (2~{R})-17-[5-[(3~{S),4~{R})-3-amino-4-(difluoromethoxy)piperidine-1-carbonyl]-1-cyclopropyl-7-methoxy-benzimidazol-2-yl]-2-methyl-3,6,9,16,22-pentazatetracyclo [14.5.2.0^{5,10}.0^{19, 23}]tricosa-1(21),5(10), 6,8,17,19,22-heptaen-4-one]
IC50: 157 nM

COc1cc(C(=O)N2CC[C@@H](OC(F)F)[C@@H](N)C2)cc2nc(-c3cc4ccc5nc4n3CCCCCCC3(COC3)C(=O)N[C@@H]5C)n(C)c12 [Example 613, (11~{R})-17-[5-[(3~{S},4~{R})-3-amino-4-(difluoromethoxy)piperidine-1-carbonyl]-7-methoxy-1-methyl-benzimidazol-2-yl]-11-methyl-spiro[1,10,19-triazatricyclo[10.5.2.0^ {15,18}]nonadeca-12,14,16,18-tetraene-8,3′-oxetane]-9-one]
IC50: 108 nM
